Data taken from patent US8163795B2, “Chroman derivatives, medicaments and use in therapy” (Marshall Edwards, Inc., priority 2004, dated 2012).
Read-outs that look alike come from different tables or passages of the source.

What was measured:
[1] = test system: Mel-AT melanoma cells (Trail +ve/Caspase 8 −ve); assay: Apoptosis incidence in melanoma cells; assay type: cell-based
A2058 melanoma cell line = assay: Proliferation assay (MTT); assay type: cell-based; settings: Homo sapiens
[2] = test system: MDA-MB-468 breast cancer cell line; assay: Proliferation assay (MTT); assay type: cell-based; settings: Homo sapiens, Breast MDA-MB-468, read-out: IC50
IGR-3 (Melanoma) = assay: Proliferation assay (MTT); assay type: cell-based
Outline: (§1)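 Cells were seeded at densities set by growth kinetics and cultured 5 days with or without test compound in medium with 10% FCS at 37° C, 5% CO2. MTT was added for 3-4 hrs at 37° C; IC50 was taken from semi-log plots of % control proliferation versus log dose.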

HTB-138 (Glioma) = assay: Proliferation assay (MTT); assay type: cell-based; settings: Table 2.1; Glioma HTB-138
Outline: as §1

NCI-H23 (Lung) = assay: Proliferation assay (MTT); assay type: cell-based; settings: Homo sapiens, Table 2.1
Outline: as §1

LNCaP (Prostate) = assay: Proliferation assay (MTT); assay type: cell-based; settings: Homo sapiens, Table 2.1
Outline: as §1

DU145 (Prostate) = assay: Proliferation assay (MTT); assay type: cell-based; settings: Homo sapiens, DU-145, Table 2.1
Outline: as §1

A2780 (Ovarian) = assay: Proliferation assay (MTT); assay type: cell-based; settings: Homo sapiens, Table 2.1
Outline: as §1

CCRF-CEM (Leukemic) = assay: Proliferation assay (MTT); assay type: cell-based; settings: Homo sapiens, CCRF-CEM
Outline: as §1

RM melanoma cell line = assay: Proliferation assay (MTT); assay type: cell-based; settings: Table 15
Outline: as §1

4405 melanoma cell line = assay: Proliferation assay (MTT); assay type: cell-based; settings: Table 15; melanoma 4405
Outline: as §1

HCT-15 (Colorectal) = assay: Proliferation assay (MTT); assay type: cell-based; settings: Homo sapiens; Table 2.1; Colorectal HCT-15
Outline: as §1

HT-29 (Colorectal) = assay: Proliferation assay (MTT); assay type: cell-based; settings: Homo sapiens, Colorectal HT-29
Outline: as §1

[3] = test system: PC3 prostate cancer cell line; assay: Proliferation assay (MTT); assay type: cell-based
Outline: as §1

[4] = test system: MCF-7 breast cancer cell line; assay: Proliferation assay (MTT); assay type: cell-based; settings: Homo sapiens, MCF7; Table 2.1; Breast MCF-7
Outline: as §1

NCI-H460 (Lung) = assay: Proliferation assay (MTT); assay type: cell-based; settings: Homo sapiens
Outline: as §1

[5] = test system: HPAC (CRL-2119) pancreatic cancer cell line; assay: Proliferation assay (MTT); assay type: cell-based, human; settings: Homo sapiens, HPAC, read-out: IC50
[6] = test system: Mel-RM melanoma cell line; assay: HMC combination with doxorubicin (synergy); assay type: cell-based; settings: for IC50: Table 12, single agent; for Change Factor (Combined): 5-day combination
Protocol: (§2) IC50 values were determined for each cell line. Cells were seeded in 96-well plates at an appropriate cell density as determined from growth kinetics analysis and cultured for 5 days in the absence and presence of the test compounds. […] IC50 values were calculated from semi-log plots of % of control proliferation on the y-axis against log dose on the x-axis.
(§3) 3-D model analysis of the cytotoxic interaction between drug A and drug B enables the representation of predicted inhibitory effect of two drugs in combination in 3 dimensions to reveal actual regions of synergy or antagonism. […] Theoretical Additivity was calculated from the cytotoxicities of drug A and drug B as monotherapies using the following formula which assumes the drugs are mutually exclusive inhibitors: […]
HMC synergy with doxorubicin was assessed either in combination over 5 days exposure or in sequence (HMC→doxorubicin) against the Mel-RM melanoma cell line.

MM200 melanoma cell line [7] = assay: HMC combination with topotecan (synergy); assay type: cell-based; settings: for IC50: Table 11, single agent; for Change Factor (Combined): 5-day combination
Protocol: as §2, §3
HMC synergy with topotecan was assessed either in combination over 5 days exposure or in sequence (HMC→topotecan) against the MM200 melanoma cell line.

[8] = test system: normal fibroblasts (MRC-5); assay: Apoptosis in normal fibroblasts; assay type: cell-based; settings: same concentration (8 μM) and exposure times (24 and 48 hr) as melanoma cells
Protocol: Studies were conducted on normal fibroblasts (MRC-5) and TRAIL-sensitive melanoma cells (ME4405 and MEL-RM) using 8 μM of either DHE, or HMC over 24 and 48 hr of exposure (FIG. 9).

MM200 melanoma cell line [9] = assay: Proliferation assay (MTT); assay type: cell-based; settings: read-out: IC50
[10] = 120 h, 5 days exposure, read-out: IC50, Combined (monotherapy)
[11] = 24 hr exposure, read-out: IC50, 24 hr (monotherapy)

Structure (SMILES): COc1ccc(C2c3ccc(O)cc3OCC2c2ccc(O)cc2)cc1 (stereo not drawn) [Compound 1, 3-(4-hydroxyphenyl)-4-(4-methoxyphenyl)chroman-7-ol]
- Percent Apoptosis ([1]; 24 hr exposure, 1 uM): 0%
- Percent Apoptosis ([1]; 24 hr exposure, 2 uM): 6%
- Percent Apoptosis ([1]; 24 hr exposure, 4 uM): 9%
- Percent Apoptosis ([1]; 24 hr exposure, 8 uM): 23%
- Percent Apoptosis ([1]; 24 hr exposure, 20 uM): 24%
- Percent Apoptosis ([1]; 48 hr exposure, 1 uM): 1%
- Percent Apoptosis ([1]; 48 hr exposure, 2 uM): 7%
- Percent Apoptosis ([1]; 48 hr exposure, 4 uM): 25%
- Percent Apoptosis ([1]; 48 hr exposure, 8 uM): 59%
- Percent Apoptosis ([1]; 48 hr exposure, 20 uM): 35%
- IC50 (A2058 melanoma cell line; A2058, Table 2.1, Melanoma A2058): 1200 ± 650 nM
- IC50 (A2058 melanoma cell line; A2058, Table 15, melanoma A2058): 1420 ± 480 nM
- IC50 ([2]; MDA-MB-468, Table 2.1): 1100 ± 350 nM
- IC50 ([2]; MDA-MB-468, Table 2.2): 2800 ± 4200 nM
- IC50 (IGR-3 (Melanoma); Table 2.1, Melanoma IGR-3): 530 ± 20 nM
- IC50 (IGR-3 (Melanoma); Table 15, melanoma IgR3): 510 ± 80 nM
- IC50 (HTB-138 (Glioma)): 1900 ± 270 nM
- IC50 (NCI-H23 (Lung)): 3750 ± 2500 nM
- IC50 (LNCaP (Prostate)): 4520 nM
- IC50 (DU145 (Prostate)): 3780 nM
- IC50 (A2780 (Ovarian)): 1580 ± 590 nM
- IC50 (CCRF-CEM (Leukemic); Table 2.1, Leukemic CCRF-CEM): 1900 nM
- IC50 (CCRF-CEM (Leukemic); Table 2.2, Leukaemia CCRF-CEM): 2000 ± 970 nM
- IC50 (RM melanoma cell line): 1400 ± 1600 nM
- IC50 (4405 melanoma cell line): 1460 ± 180 nM
- IC50 (HCT-15 (Colorectal)): 37800 ± 33000 nM
- IC50 (HT-29 (Colorectal); HT-29, Table 2.1): 3700 ± 1400 nM
- IC50 (HT-29 (Colorectal); HT-29, Table 2.2): 5400 ± 1800 nM
- IC50 ([3]; Table 2.1): 2900 ± 920 nM
- IC50 ([3]; Table 2.2): 2500 ± 1000 nM
- IC50 [4]: 7150 ± 7000 nM
- IC50 (NCI-H460 (Lung); NCI-H460, Table 2.1, Lung NCI-H460): 2230 ± 150 nM
- IC50 (NCI-H460 (Lung); NCI-H460, Table 2.2, NSC Lung NCI-H460): 2800 ± 2000 nM
- IC50 ([5]; Table 2.1, Pancreatic CRL-2119): 14100 ± 1160 nM
- IC50 ([5]; Table 2.2, Pancreatic HPAC): 2800 ± 900 nM
- IC50 [6, 10]: 540 nM
- Change Factor (HMC first) ([6]; HMC 1 uM 24 hr then doxorubicin 24 hr): 1.62
- Change Factor (HMC first) ([6]; HMC 2 uM 24 hr then doxorubicin 24 hr): 12.22
- chemosensitisation of Mel-RM cells to camptothecin (change in IC50) ([6]; HMC 2 μM, sequence protocol): ~12 fold
- IC50 [6, 11]: 50500 nM
- Change Factor (Combined) ([6]; doxorubicin with HMC 1 uM): −2.06
- Change Factor (Combined) ([6]; doxorubicin with HMC 2 uM): ?HMC effect
- IC50 (MM200 melanoma cell line [7]; [10]): 702 nM
- chemosensitisation of MM200 cells to topotecan (change in IC50) (MM200 melanoma cell line [7]; HMC 2 μM, HMC→topotecan sequence): > 1000 fold
- IC50 (MM200 melanoma cell line [7]; [11]): 18000 nM
- Change Factor (HMC first) (MM200 melanoma cell line [7]; Topotecan block, HMC 1 uM 24 hr then topotecan 24 hr): 50.656
- Change Factor (Combined) (MM200 melanoma cell line [7]; Topotecan block, with HMC 1 uM): ?HMC effect
- Change Factor (Combined) (MM200 melanoma cell line [7]; Topotecan block, with HMC 2 uM): ?HCM effect
- Change Factor (HMC first) (MM200 melanoma cell line [7]; upper block of Table 11, HMC 2 uM first, sequence): >1000
- Change Factor (Combined) (MM200 melanoma cell line [7]; upper block of Table 11, HMC 2 uM): ?HMC effect
- induction of apoptosis in normal fibroblasts [8]: do not induce apoptosis
- IC50 (MM200 melanoma cell line [9]; Table 2.1, Melanoma MM200): 700 ± 30 nM
- IC50 (MM200 melanoma cell line [9]; Table 2.2, Melanoma MM200): 1070 ± 500 nM
- IC50 (MM200 melanoma cell line [9]; Table 15, melanoma MM200, monotherapy): 1130 ± 520 nM
